# Results reported in patent publication US11819021B2, “Peptides and methods and uses thereof for modulating anaphase promoting complex (APC) activity” (University of Saskatchewan, priority 2017, dated 2023).
# Entries after “also recorded” stand apart in the source; their conditions may differ.
# Legend:
# Apc5 = biological target: T1, Apc5 (Saccharomyces cerevisiae, UniProt Q08683); experiment: Yeast 2-hybrid (Y2H) binding of peptide prey to Apc5 bait; conditions: galactose-inducible Trx-scaffold peptide prey
# T1 construct: expressed in transfected cells; host or cells: yeast Y2H cells
# T1 sequence (Q08683 1-685): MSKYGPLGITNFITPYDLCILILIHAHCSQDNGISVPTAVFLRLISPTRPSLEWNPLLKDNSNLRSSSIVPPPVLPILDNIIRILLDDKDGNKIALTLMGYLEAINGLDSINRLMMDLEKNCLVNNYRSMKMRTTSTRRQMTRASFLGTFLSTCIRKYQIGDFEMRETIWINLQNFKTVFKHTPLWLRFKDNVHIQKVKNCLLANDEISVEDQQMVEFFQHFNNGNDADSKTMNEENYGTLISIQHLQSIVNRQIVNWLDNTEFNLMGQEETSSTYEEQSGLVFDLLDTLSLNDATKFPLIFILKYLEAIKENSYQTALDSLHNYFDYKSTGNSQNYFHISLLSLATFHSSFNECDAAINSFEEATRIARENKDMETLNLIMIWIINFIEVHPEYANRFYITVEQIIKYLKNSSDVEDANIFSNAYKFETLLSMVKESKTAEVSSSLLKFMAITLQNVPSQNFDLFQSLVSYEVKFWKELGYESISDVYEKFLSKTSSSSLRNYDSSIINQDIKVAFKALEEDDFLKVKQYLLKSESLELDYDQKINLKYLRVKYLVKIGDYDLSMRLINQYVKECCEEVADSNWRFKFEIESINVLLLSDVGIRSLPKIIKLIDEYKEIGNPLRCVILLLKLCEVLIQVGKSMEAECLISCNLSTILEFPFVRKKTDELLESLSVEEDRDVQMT
# Protocol: (§1) The reverse genetic screen utilized a yeast 2-hybrid (Y2H) protocol that selected for peptides that bound to the APC subunits Apc5 or Apc10 (see FIG. 5 for APC structure), to assess whether peptide-binding might modify APC function. Peptides that bound APC subunits were then assayed for those that suppressed APC mutant defects.
# (§2) Random small peptides were cloned into the TrxA scaffold (library provided by R. Geyer, U of S) and expressed from a galactose-inducible Y2H prey vector in cells harboring either APC5 or APC10 Y2H bait vectors (APC5/APC10 bait constructs complement APC mutant defects).
# (§3) Over 100 peptides that bound either Apc5 or Apc10 were recovered from millions screened. Six peptides that reproducibly interacted with the Apc10 bait construct in Y2H assays were examined further. Vectors expressing these 6 peptides were transformed into APC mutant cells and assessed for ts growth.
# [1] = tested on: APC mutant (apc5 temperature sensitive mutant and/or apc10Δ mutant); experiment: Viability/growth of APC mutant yeast cells; assay type: cell-based
# Protocol: (§4) A. apc5^CA cells expressing small peptides were assayed for replicative life span (RLS). B. Cells expressing HTZ1 were grown under stress conditions. HTZ1 expression, even at low levels, suppresses apc5^CA and apc10Δ defects. The cells shown were transformed with either an empty vector or GAL inducible HTZ1. On 2% glucose, the construct is weakly expressed, and this is enough to increase growth of APC mutants at 30° C.
# Examples of yeast cells with defective anaphase promoting complex (APC) function include apc5 and apc10 mutants. An example of an apc5 mutant is the apc5 temperature sensitive mutant described herein. An example of an apc10 mutant is the apc10 deletion mutant described herein.
# as §1, §3
# apc10Δ cells = experiment: Spot dilution growth of apc10Δ cells expressing peptides; assay type: cell-based, yeast
# Text: A. Y2H cells expressing the APC subunit bait and the galactose inducible Apc10 peptide prey grown on glucose or galactose. Cells co-expressing the Apc5 or Apc10-bait and Apc10 aptamer-prey vectors were spotted onto the appropriate media, in the presence or absence of galactose (the aptamers are Gal inducible), to confirm 2-hybrid interactions. Growth on trp-his-media ensures both plasmids are maintained. A 2-hybrid interaction will drive expression of the ADE2 gene, allowing growth on ade-media. B. Aptamers that bind Apc10 can suppress APC mutant phenotypes. Spot dilutions of apc10Δ cells expressing an empty vector control or the one of 6 Apc10 aptamers tested. Log phase cells were 10-fold serially diluted and spotted onto plates containing either 2% glucose or 2% galactose. The plates were then incubated at 30° C. (permissive temperature) and 34° C. (restrictive stress). C. Peptides identified as binding to the yeast Apc10 APC subunit using the yeast 2-hybrid screen increase growth of cells on stress conditions. A series of APC binding peptides were transformed into wild type yeast cells, spot diluted, and grown at 30° C. on media supplemented with the normal carbon source (2% glucose). Alternatively, cells were grown on media supplemented with 2% galactose to induce a carbon stress. D. Peptides were expressed in apc5^ts temperature sensitive cells and grown on glucose or galactose media at 30° C.
# The cells were exposed to 5 sec of UV from a UV box prior to incubation.
# The six peptide expressing vectors were transformed into apc10Δ cells and assessed for temperature sensitive growth. Two of the peptides, C43-4 and C2-4B, suppressed the apc10Δ growth phenotype at 30 and 34° C. (FIG. 1B-D). […]
# Over 100 peptides that bound either Apc5 or Apc10 were recovered from millions screened. […] Vectors expressing these 6 peptides were transformed into APC mutant cells and assessed for ts growth.
# Methods • 1. […] The growth of the cells was determined by measuring the optical density (OD) of the cells at 600 nm (OD600) • 3. […]
# [2] = tested on: wild type (WT) yeast cells; experiment: Spot dilution growth and stress resistance of wild type yeast cells expressing peptides; assay type: cell-based
# Protocol: (§5) A. apc5^CA (temperature sensitive allele) cells were transformed with C43-4, C2-4B or an empty vector. Cells grown overnight in 2% Glu were struck onto 2% Glucose plates and used for the yeast replicative lifespan (RLS) assay. B. Wild type (WT) cells transformed with C43-4, C2-4B or an empty vector were grown to stationary phase in 2% Glu media, then after 2 days spot diluted onto 2% Glu or 2% Gal to induce expression of the aptamers.
# The cells were exposed to 5 sec of UV from a UV box prior to incubation. The plus signs define growth compared to the empty vector control.
# (§6) The six peptide expressing vectors were transformed into apc10Δ cells and assessed for temperature sensitive growth. Two of the peptides, C43-4 and C2-4B, suppressed the apc10Δ growth phenotype at 30 and 34° C. (FIG. 1B-D). […] However, C43-4 and C2-4B increased replicative and chronological lifespan in both apc5^CA and WT cells, respectively (FIG. 2A). […] H2O2 induces oxidative stress whereas galactose induces a carbon stress.
# These cells were spot diluted on Trp-plates and grown at the temperatures shown and/or exposed to ultraviolet (UV) irradiation (FIG. 11). At low level expression on glucose, some of the mutations caused stress dependent phenotypes.
# Methods • 1. Cells were cultured overnight in Trp-2% glucose media • 2. The growth of the cells was determined by measuring the optical density (OD) of the cells at 600 nm (OD600) • 3. Cells were diluted to OD600 of 1 with fresh culture media • 4. 100 ul of each culture was pipetted into a well of a 96 well plate • 5. 10 ul of the each starting culture was pipetted into 90 ul of water in 4 additional wells to make a 10-fold serial spot dilution • 6. 5 ul from each serial dilution was spotted onto plates containing standard growth media with either 2% glucose or 2% galactose using a multi-pipettor • 7. The plates were exposed to UV • 8. The plates were then placed at room temperature, 30, 34 or 37° C. for 3-7 days • 9. The plates were scanned and saved as tiff files
# apc5^CA cells = experiment: Yeast replicative lifespan (RLS) assay; assay type: cell-based
# Protocol: as §5, §4
# WT cells = experiment: Chronological lifespan of WT yeast cells; assay type: cell-based
# Protocol: as §5, §6
# Apc10 = biological target: T2, Apc10 (Saccharomyces cerevisiae, UniProt P53068); experiment: Yeast 2-hybrid (Y2H) binding of peptide prey to Apc10 bait; conditions: galactose-inducible Trx-scaffold peptide prey
# T2 construct: expressed in transfected cells; host or cells: yeast Y2H cells
# T2 sequence (P53068 1-250): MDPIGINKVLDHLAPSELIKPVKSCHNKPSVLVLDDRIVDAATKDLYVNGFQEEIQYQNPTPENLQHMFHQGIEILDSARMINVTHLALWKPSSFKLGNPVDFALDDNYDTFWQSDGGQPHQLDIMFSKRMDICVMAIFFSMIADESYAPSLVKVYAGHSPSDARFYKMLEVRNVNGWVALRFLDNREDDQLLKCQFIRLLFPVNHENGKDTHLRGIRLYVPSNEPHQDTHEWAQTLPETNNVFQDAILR
# Protocol: as §1
# A library of random small peptides were cloned into a Thioredoxin (Trx) scaffold (see FIG. 6 for Trx-aptamer structure) and expressed from a galactose-inducible Y2H prey vector in cells expressing the Apc10 bait vector (the modified Apc10 is still part of the complete APC complex). Six peptides that reproducibly interacted with the Apc10 bait construct in Y2H assays were identified (FIG. 1A) and were examined further.
# as §2, §3
# APC = experiment: Yeast 2-hybrid binding to the APC
# Text: As used herein, the expression “binds to the APC” refers to a peptide that binds to at least one subunit of the APC, for example Apc5 or Apc10. Binding can be measured for example, by any method known in the art, including, but not limited to a yeast 2-hybrid assay.
# as §1, §2
# [3] = tested on: apc5^CA temperature sensitive mutant; experiment: Forward genetic screen: rescue of apc5^CA temperature sensitive growth; assay type: cell-based, yeast
# Text: Using a forward genetic screen to test whether temperature sensitive (ts) APC mutants expressing random small peptides could grow at restrictive temperatures, millions of small peptides were rapidly screened for those that could restore mutant APC phenotypes. Peptides that rescued the apc5^CA ts (temperature sensitive) defect were recovered including peptides Y65 and Y36.
# In the forward screens, with galactose-inducible TrxA-based peptide libraries, in cells harboring the apc5^CA ts allele, over 200 peptides (from millions screened) suppressed the ts phenotype. Several recovered plasmids were sequenced.
# Cin5 = biological target: T3, Cin5 (Saccharomyces cerevisiae, UniProt P40917); experiment: Yeast 2-hybrid with Y65 bait to identify binding partners
# T3 construct: expressed in transfected cells; host or cells: yeast Y2H cells
# T3 sequence (P40917 1-295): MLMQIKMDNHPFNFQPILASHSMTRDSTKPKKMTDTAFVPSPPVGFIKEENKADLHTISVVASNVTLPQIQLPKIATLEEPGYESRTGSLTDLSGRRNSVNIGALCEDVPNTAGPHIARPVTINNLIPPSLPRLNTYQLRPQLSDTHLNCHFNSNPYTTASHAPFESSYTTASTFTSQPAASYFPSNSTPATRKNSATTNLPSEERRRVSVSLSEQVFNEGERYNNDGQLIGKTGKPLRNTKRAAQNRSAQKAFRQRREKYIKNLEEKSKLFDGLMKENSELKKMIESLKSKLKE
# Text: One peptide in particular, Y65, was of interest because it had homology to Elongin C (Elc1; Y65 is 20 amino acids in length, with a 7 residue stretch sharing 86% identity and 100% similarity with Elc1). Elc1 is a ubiquitin-protein ligase (E3) conserved among eukaryotes that is involved in DNA repair (Harreman et al, 2009; Ribar et al, 2007). To identify what the peptides bound in order to modify APC activity, Y65 was cloned into the Y2H bait vector and used to identify binding partners.
sequence,measurement,setting,value
"RMPQWWQWMWV [C2-4B, Peptide aptamer with homology to yeast protein Sum1]",Binds Apc5 in a yeast 2 hybrid assay,Apc5,Binds Apc5
same,Binds Apc5 in a yeast 2 hybrid assay,Apc5; listed as 02-4B,binds Apc5
same,Viability of an APC mutant,[1],increases the viability
same,apc10Δ growth phenotype,apc10Δ cells; 30 and 34° C.,suppressed
same,Log phase growth of wild type (WT) cells,[2]; 30° C.,Neither C43-4 nor C2-4B influenced
same,Stress resistance when overexpressed in WT yeast cells,"[2]; overexpressed, H2O2 oxidative stress, galactose carbon stress",increased stress resistance
same,Replicative lifespan,apc5^CA cells,increased
same,Chronological lifespan,WT cells,increased
"NGSSHNDARVRRLTLISRLC (Artificial Sequene) [C43-4-3, Version of C43-4 where the leucine residue at position 8 is replaced with alanine]",Binds Apc10 in a yeast 2 hybrid assay,Apc10,binds Apc10
same,Toxicity in apc10Δ cells,"apc10Δ cells; glucose or galactose media, 5 sec UV (FIG. 13)",remained toxic
same,Resistance to UV stress compared to C43-4 cells,"[2]; FIG. 11, UV treated, for example at room temperature",increased resistance to UV stress
same,Growth compared to C43-4 cells,"[2]; FIG. 11, for example at room temperature",increased growth
same,Stress resistance at low level expression,"[2]; WT cells on glucose, temperature and/or UV stress, versus empty vector",increased stress resistance further
SWLNGSGGVVLWLFSNFCCG [Y36],Binding to the APC in a yeast 2HY assay,APC,not bind the APC in a yeast 2HY
same,apc5^CA temperature sensitive (ts) growth / viability of an apc5 temperature sensitive mutant,[3],increases the viability; also recorded: rescued; also recorded: Rescues apc5^CA temperature
"VRQKSDKEYERVLGLGLRRL [Y65, Peptide with homology to Elc1]",Binding to the APC in a yeast 2HY assay,APC,not bind the APC in a yeast 2HY
same,apc5^CA temperature sensitive (ts) growth / viability of an apc5 temperature sensitive mutant,[3],increases the viability; also recorded: rescued; also recorded: Rescues apc5^CA temperature
same,Interaction with Cin5 in a yeast 2 hybrid assay,Cin5,"One peptide binding partner was isolated, Cin5; also recorded: Interacts with Cin5 in a yeast 2"
